Results on one molecule are retold here after publication PMC11206988, “Study on the Effect of Pharmaceutical Excipient PEG400 on the Pharmacokinetics of Baicalin in Cells Based on MRP2, MRP3, and BCRP Efflux Transporters” (Pharmaceutics, 2024).

The structures appear in SMILES notation. Read-outs that look alike come from different tables or passages of the source.

The data set concerns the target T1, BCRP (Homo sapiens, UniProt Q9UNQ0).
T1 construct: expressed in transfected cells; host or cells: MDCK II
T1 sequence (Q9UNQ0 1-655): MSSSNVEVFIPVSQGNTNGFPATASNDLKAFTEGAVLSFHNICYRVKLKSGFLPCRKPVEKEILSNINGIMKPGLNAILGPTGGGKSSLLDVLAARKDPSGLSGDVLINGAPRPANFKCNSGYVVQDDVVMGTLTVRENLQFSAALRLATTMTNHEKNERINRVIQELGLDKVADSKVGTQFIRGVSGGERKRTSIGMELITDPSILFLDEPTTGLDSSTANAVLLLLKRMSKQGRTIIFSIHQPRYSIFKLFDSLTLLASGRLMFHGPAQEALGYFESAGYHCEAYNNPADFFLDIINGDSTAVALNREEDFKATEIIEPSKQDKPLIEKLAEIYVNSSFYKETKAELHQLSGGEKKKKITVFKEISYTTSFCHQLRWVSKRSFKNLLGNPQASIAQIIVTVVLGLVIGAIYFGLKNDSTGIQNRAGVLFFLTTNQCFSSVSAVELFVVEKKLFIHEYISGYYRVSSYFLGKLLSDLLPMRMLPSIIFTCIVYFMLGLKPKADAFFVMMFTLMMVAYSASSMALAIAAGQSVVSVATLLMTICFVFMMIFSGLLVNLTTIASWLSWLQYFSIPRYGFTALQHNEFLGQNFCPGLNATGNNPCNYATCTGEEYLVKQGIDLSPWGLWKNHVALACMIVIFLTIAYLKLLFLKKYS
The data set can be described thus: Transport of baicalin across MDCK II-BCRP cell monolayer (transwell). The data set is classed as in vitro ADME. The note with it: pH 7.4, MDCK II-BCRP. How it is done:
The cells were inoculated at a density of 0.5 mL (1 × 10^5) in the upper layer of the transwell plate (AP side), and the culture was changed daily after the lower layer was added with 1.5 mL of complete medium without cells every other day. After 5–7 days of growth, the supernatant was aspirated and discarded, and the cell monolayer was rinsed twice with 37 °C Hank’s Balanced Salt Solution (HBSS, pH 7.4). The electrical resistance of the cell monolayer compartments was measured with a resistivity meter (TEER), and the integrity of the cell monolayer was monitored using TEER. The differentiation of MDCK II-WT, MDCK II-MRP2, MDCK II-MRP3, and MDCK II-BCRP cells was examined by determining sodium fluorescein permeability prior to transit experiments. This was done in order to determine the integrity of the cell monolayer. When the TEER value of the cell monolayer was greater than 150 Ω·cm^2 and the MDCK II-MRP2, MDCK II-MRP3, and MDCK II-BCRP sodium fluorescein permeability was less than 0.5 × 10^−6 cm/s or the MDCK II-WT sodium fluorescein permeability was less than 1 × 10^−6 cm/s, the cell monolayer was considered intact and suitable for transit experiments. TEER = (TEERcell monolayer − TEERblank) × Aarea(1) wherein TEERcell monolayer is the resistance of the cell monolayer read directly from the Millicell ERS-2 resistivity meter, and TEERblank is the resistance read by inserting a blank HBSS (no cells) only. Aarea is the surface area of the filter membrane, 1.12 cm^2.
In this experiment, a 100 μM baicalin solution (dissolved in HBSS) containing different concentrations of PEG400 (0.25%, 0.5%, and 1%) was employed as the test solution, while a solution without PEG400 was used as the blank test solution, which was added to AP or BL chambers, respectively. In the top to basolateral (AP-BL) transport experiment, the 0.5 mL sample added to the apical side (AP) was utilized as the supply room, and the HBSS preheated to 1.5 mL 37 °C was added to the basolateral (BL) as the receiving chamber. Conversely, in the basal low lateral to top (BL-AP) transport experiment, the 1.5 mL sample (dissolved in HBSS) was added to the BL side as the supply room, and the 0.5 mL preheated HBSS was added as a receiving room on the AP side. Once the aforementioned steps had been completed, the transwell was placed on a 37 °C thermostatic oscillator at 60 r/min, and 100 μL was withdrawn from the receiving cell or 10 μL from the supply chamber at 30, 60, 90, and 120 min, depending on the experiment, and replenished with an equal volume of blank 37 °C preheated HBSS. The samples were utilized to precipitate the proteins with 100 μL of methanol containing the internal standard for 10 min. After centrifugation at 16,000× g for 15 min at 4 °C, the supernatant was collected in a volume of 70 μL. The contents were determined by UPLC-MS/MS, and apparent permeability coefficients (PAPP) and efflux ratios (ER) were calculated.
The formulas for calculating Papp and ER of monolayer and monolayer are as follows:(2) Papp=dQ/dt/AC0 wherein dQ/dt (ng/mL·s) is the transit rate (ng/mL·s); A is the membrane area (1.12 cm^2); and C0 (ng/mL) is the initial concentration of the sample in the supply chamber. ER = PappBL-AP/PappAP-BL (3) wherein PappBL-AP is the apparent permeability coefficient when the BL is added to the sample, and PappAP-BL is the apparent permeability coefficient when the sample is added at the top side (AP).

On to `O=C(O)[C@H]1O[C@@H](Oc2cc3oc(-c4ccccc4)cc(=O)c3c(O)c2O)[C@H](O)[C@@H](O)[C@@H]1O` [BG, Baicalein-7-O-β-D-glucuronide], for which the apical-to-basolateral permeability (Papp A→B) at 120 min, 100 μM runs as follows: (100 μM BG + 0.25% PEG400) 5.64 ± 0.48 ×10⁻⁶ cm/s; (100 μM BG + 0.5% PEG400) 7.4 ± 0.43 ×10⁻⁶ cm/s; (100 μM BG + 1% PEG400) 8.59 ± 0.19 ×10⁻⁶ cm/s; (100 μM BG alone) 3.43 ± 0.07 ×10⁻⁶ cm/s. Also, the Papp B→A at 120 min, 100 μM reads like this: (100 μM BG + 0.25% PEG400) 8.98 ± 0.42 ×10⁻⁶ cm/s; (100 μM BG + 0.5% PEG400) 7.51 ± 0.47 ×10⁻⁶ cm/s; (100 μM BG + 1% PEG400) 6.9 ± 0.04 ×10⁻⁶ cm/s; (100 μM BG alone) 10.34 ± 0.02 ×10⁻⁶ cm/s. Also, the efflux ratio at 120 min, 100 μM stood at 1.59 ± 0.06 (100 μM BG + 0.25% PEG400, read-out: ER); 1.02 ± 0.04 (100 μM BG + 0.5% PEG400, read-out: ER); 0.8 ± 0.02 (100 μM BG + 1% PEG400, read-out: ER); 3.01 ± 0.05 (100 μM BG alone, read-out: ER).

A word on the Papp A→B: it is the apparent permeability from the apical to the basolateral side of a cell layer. By Papp B→A is commonly meant how fast a substance crosses the layer from the basolateral side.
